One data set deals with PI3Ka (Homo sapiens (Human), UniProt P42336). Put plainly: Z'-LYTE / Adapta kinase assay, PI3Ka. It is filed as biochemical. The note with it: for inhibition at 0.1 µM: read-out: PI3Ka % Inh. @ 100 nM. The gist of the method:
(§1)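 Z'-LYTE FRET-peptide phosphorylation read as coumarin/fluorescein emission ratio (400 nm excitation); Adapta immunoassay detects ADP formation. 60-min kinase reaction, 60-min development, room temperature.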

A further data set addresses EGFR (Homo sapiens (Human), UniProt P00533). The data set can be described thus: Z'-LYTE / Adapta kinase assay, EGFR. It counts as biochemical. The conditions noted are these: for inhibition at 0.1 µM: read-out: EGFR % Inh. @ 100 nM. The method, boiled down: as §1
The next data set deals with DNA-PK (Homo sapiens (Human), UniProt P78527). The data set can be described thus: Z'-LYTE / Adapta kinase assay, DNA-PK. It is filed as biochemical. The note with it: for inhibition at 0.1 µM: read-out: DNA-PK % Inh. @ 100 nM. The gist of the method:
as §1

The nature of data set [1]: Metabolic stability in mouse liver microsomes. It is filed as in vitro ADME. The protocol: Working solution: 5 μL of compound and control stock solution (10 mM in dimethyl sulfoxide (DMSO)) were diluted with 495 μL of acetonitrile (ACN) (intermediate solution concentration: 100 μM, 99% ACN)
NADPH Cofactor Preparation: NADPH powder: β-Nicotinamide adenine dinucleotide phosphate reduced form, tetrasodium salt; NADPH·4Na. The appropriate amount of NADPH powder was weighed and diluted into a 10 mM MgCl2 solution (working solution concentration: 10 unit/mL; final concentration in reaction system: 1 unit/mL)
Liver Microsomes Preparation: The appropriate concentrations of microsome working solutions were prepared in 100 mM potassium phosphate buffer. Cold (4° C.) acetonitrile (ACN) containing 200 ng/mL tolbutamide and 200 ng/mL labetalol as internal standards (1S) was used as the stop solution
Assay Procedure: Pre-warm empty ‘Incubation’ plates T60 and NCF60 for 10 minutes. Dilute liver microsomes to 0.56 mg/mL in 100 mM phosphate buffer. Transfer 445 μL microsome working solutions (0.56 mg/mL) into pre-warmed ‘Incubation’ plates T60 and NCF60, Then pre-incubate ‘Incubation’ plates T60 and NCF60 for 10 min at 37° C. with constant shaking. Transfer 54 μL liver microsomes to blank plate, then add 6 μL NAPDH cofactor to blank plate, and then add 180 μL quenching solution to blank plate. Add 5 μL compound working solution (100 μM) into ‘incubation’ plates (T60 and NCF60) containing microsomes and mix 3 times thoroughly.
For the NCF60 plate, add 50 μL of buffer and mix 3 times thoroughly. Start timing; plate will be incubated at 37° C. for 60 min while shaking. In ‘Quenching’ plate T0, add 180 μL quenching solution and 6 μL NAPDH cofactor. Ensure the plate is chilled to prevent evaporation. For the T60 plate, mix 3 times thoroughly, and immediately remove 54 μL mixture for the 0-min time point to ‘Quenching’ plate. Then add 44 μL NAPDH cofactor to incubation plate (T60). Start timing; plate will be incubated at 37° C. for 60 min while shaking. At 5, 10, 20, 30, and 60 min, add 180 μL quenching solution to ‘Quenching’ plates, mix once, and serially transfer 60 μL sample from T60 plate per time point to ‘Quenching’ plates. For NCF60: mix once, and transfer 60 μL sample from the NCF60 incubation to ‘Quenching’ plate containing quenching solution at the 60-min time point. All sampling plates are shaken for 10 min, then centrifuged at 4000 rpm for 20 minutes at 4° C. Transfer 80 μL supernatant into 240 μL HPLC water, and mix by plate shaker for 10 min. Each bioanalysis plate was sealed and shaken for 10 minutes prior to LC-MS/MS analysis.
The equation of first order kinetics was used to calculate T½ and CLint(mic) (μL/min/mg). Equation of first order kinetics: […]
The biological stability of the compounds of the disclosure can be measured by determining its ½ life in the presence microsomes. Presented in Table 5, is the ½ life of selected compounds of the disclosure in the presence of human liver microsomes (HLM) or mouse liver microsomes (MLM) as described above. In Table 5, ½ life is presented as “++++” (value is greater than 60 minutes), “+++” (value is greater than 30 minutes and less than or equal to 60 minutes), “++” (value is greater than 15 minutes and less than or equal to 30 minutes) and “+” (value is 15 minutes or less).
On the technique in general: Liver microsomes are a subcellular fraction often used to study metabolism.

Experimental findings from patent US11673876B2, “Substituted aminobenzyl heteroaryl compounds as EGFR and/or PI3K inhibitors” (Mekanistic Therapeutics LLC, priority 2020, dated 2023) are described below.

EGFR, sequence (P00533 25-1210): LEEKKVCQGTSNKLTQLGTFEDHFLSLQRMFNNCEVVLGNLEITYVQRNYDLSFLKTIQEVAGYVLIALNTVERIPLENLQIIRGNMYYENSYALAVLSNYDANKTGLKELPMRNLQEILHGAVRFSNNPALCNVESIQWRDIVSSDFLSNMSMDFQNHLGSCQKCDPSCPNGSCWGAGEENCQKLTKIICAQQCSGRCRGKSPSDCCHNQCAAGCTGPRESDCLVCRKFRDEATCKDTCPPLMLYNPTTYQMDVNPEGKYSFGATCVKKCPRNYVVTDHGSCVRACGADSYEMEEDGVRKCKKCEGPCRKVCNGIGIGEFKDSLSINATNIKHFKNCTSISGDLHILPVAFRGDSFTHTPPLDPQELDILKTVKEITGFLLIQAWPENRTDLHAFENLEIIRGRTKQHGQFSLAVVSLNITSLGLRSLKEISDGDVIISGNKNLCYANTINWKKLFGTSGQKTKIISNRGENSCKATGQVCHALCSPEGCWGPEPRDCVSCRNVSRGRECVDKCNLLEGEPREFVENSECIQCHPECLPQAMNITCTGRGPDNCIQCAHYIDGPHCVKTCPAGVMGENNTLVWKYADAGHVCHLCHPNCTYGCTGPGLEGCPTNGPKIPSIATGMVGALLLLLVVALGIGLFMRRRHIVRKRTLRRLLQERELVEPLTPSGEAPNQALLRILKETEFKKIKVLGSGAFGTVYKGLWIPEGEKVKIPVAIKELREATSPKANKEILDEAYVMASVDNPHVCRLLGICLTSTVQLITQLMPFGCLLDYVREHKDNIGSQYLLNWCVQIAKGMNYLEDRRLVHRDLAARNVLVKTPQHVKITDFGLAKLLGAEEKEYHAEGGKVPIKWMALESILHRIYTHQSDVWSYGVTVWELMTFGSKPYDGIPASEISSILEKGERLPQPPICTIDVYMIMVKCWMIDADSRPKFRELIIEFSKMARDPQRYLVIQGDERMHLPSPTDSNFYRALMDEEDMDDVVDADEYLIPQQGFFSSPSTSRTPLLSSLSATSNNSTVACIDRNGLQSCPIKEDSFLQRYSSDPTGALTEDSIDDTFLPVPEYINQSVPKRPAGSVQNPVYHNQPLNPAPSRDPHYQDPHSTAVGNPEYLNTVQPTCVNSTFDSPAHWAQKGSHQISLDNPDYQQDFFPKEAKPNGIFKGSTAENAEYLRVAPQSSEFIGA
PI3Ka, sequence (P42336 whole entry): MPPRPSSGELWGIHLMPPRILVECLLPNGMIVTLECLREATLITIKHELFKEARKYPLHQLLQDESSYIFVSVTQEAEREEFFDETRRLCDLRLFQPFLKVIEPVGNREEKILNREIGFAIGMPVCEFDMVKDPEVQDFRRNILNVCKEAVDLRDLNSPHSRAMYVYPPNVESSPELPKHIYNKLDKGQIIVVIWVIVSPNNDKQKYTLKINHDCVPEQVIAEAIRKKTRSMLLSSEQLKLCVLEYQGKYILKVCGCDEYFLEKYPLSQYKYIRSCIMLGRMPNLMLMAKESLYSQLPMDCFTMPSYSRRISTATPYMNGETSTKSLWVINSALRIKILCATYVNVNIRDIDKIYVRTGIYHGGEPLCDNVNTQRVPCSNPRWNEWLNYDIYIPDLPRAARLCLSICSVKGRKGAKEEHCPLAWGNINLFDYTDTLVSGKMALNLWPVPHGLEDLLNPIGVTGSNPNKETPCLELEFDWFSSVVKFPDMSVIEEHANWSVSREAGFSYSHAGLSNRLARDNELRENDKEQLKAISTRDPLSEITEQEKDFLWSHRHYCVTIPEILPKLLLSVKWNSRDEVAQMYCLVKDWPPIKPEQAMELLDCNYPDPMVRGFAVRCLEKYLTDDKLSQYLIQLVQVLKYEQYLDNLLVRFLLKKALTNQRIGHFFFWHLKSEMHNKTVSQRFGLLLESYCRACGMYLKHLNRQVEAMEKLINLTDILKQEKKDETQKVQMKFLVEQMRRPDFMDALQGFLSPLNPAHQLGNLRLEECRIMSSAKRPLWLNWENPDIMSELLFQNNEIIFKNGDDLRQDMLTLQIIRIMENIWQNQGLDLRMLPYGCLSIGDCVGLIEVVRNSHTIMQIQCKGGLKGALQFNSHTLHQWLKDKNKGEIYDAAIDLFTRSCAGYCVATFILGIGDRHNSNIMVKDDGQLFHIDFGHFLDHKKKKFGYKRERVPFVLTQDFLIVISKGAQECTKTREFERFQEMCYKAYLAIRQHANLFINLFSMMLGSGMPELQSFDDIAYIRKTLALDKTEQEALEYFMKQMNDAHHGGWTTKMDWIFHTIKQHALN
PI3Ka, sequence (P27986 whole entry partner): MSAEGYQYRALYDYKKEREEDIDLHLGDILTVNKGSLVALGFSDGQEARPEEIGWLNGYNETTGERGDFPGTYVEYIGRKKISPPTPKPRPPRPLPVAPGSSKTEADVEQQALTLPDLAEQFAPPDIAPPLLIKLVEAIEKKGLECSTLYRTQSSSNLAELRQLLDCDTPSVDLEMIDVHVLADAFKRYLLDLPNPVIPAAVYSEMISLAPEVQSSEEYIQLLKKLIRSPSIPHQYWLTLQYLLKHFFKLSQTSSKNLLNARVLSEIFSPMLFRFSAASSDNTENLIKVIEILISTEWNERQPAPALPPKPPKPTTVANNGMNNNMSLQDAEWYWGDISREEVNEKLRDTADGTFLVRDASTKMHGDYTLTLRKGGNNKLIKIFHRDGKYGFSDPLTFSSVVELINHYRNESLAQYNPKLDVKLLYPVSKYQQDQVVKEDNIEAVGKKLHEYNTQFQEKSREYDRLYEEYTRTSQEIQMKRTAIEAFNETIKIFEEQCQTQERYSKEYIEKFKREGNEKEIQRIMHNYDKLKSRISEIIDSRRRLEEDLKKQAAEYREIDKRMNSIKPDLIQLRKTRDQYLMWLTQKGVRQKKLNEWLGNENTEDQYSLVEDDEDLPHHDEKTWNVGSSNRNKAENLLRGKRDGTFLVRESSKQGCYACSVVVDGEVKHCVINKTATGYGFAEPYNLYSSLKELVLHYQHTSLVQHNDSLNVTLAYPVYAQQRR

For the molecule `CS(=O)(=O)Nc1cc(-c2ccc3ncnc(NCc4ccccc4)c3c2)cnc1Cl` [Comparative Compound 1, N-[5-[4-(benzylamino)quinazolin-6-yl]-2-chloro-3-pyridyl]methanesulfonamide, reference compound], on PI3Ka, the “PI3Ka IC50 (nM)” value was “++++ (value is 2 nM or less)” and the inhibition at 0.1 µM is above 90%. In addition, at EGFR, the concentration for half-maximal inhibition (IC50) lay in the range of 20 to 200 nM and the inhibition at 0.1 µM is 10 to 80%. In addition, on DNA-PK, the IC50 was below 2 nM and the inhibition at 0.1 µM was above 90%. Also, in data set [1], the “½ life minutes (MLM)” value was “++++ (value is greater than 60 minutes)”.
Take `CS(=O)(=O)Nc1cc(-c2ccc3ncnc(Nc4ccc(F)c(Cl)c4)c3c2)cnc1Cl` [Comparative Compound 2, reference compound]: at PI3Ka, the “PI3Ka IC50 (nM)” value was “++++ (value is 2 nM or less)” and the inhibition at 0.1 µM was above 90%. Further, on EGFR, the IC50 was in the range of 2 to 20 nM and the inhibition at 0.1 µM was above 90%. For the same molecule, at DNA-PK, the half-inhibitory concentration (IC50) is below 2 nM and the inhibition at 0.1 µM is above 90%. Besides, in data set [1], the “½ life minutes (MLM)” value is given as “++++ (value is greater than 60 minutes)”.
For the molecule `CS(=O)(=O)Nc1cncc(-c2ccc3ncnc(NCc4ccccc4)c3c2)c1` [Comparative Compound 3, reference compound], the “PI3Ka IC50 (nM)” value at PI3Ka is “++ (value is greater than 20 nM and less than or equal to 200 nM)”. On PI3Ka (100 nM), the “PI3Ka % Inh. @ 100 nM” value was “*** (value is greater than 80% and less than or equal to 90%)”. Further, the “EGFR % Inh. @ 100 nM” value at EGFR (100 nM) is listed as “**** (value is greater than 90%)”. In addition, the “DNA-PK % Inh. @ 100 nM” value on DNA-PK (100 nM) is “**** (value is greater than 90%)”. In data set [1], the “½ life minutes (MLM)” value is given as “+ (value is 15 minutes or less)”.
Regarding `C[C@@H](Nc1ncnc2ccc(-c3cnc(Cl)c(NS(C)(=O)=O)c3)cc12)c1ccccc1` [Compound 2R, N-(2-chloro-5-(4-((1R-phenylethyl)amino)quinazolin-6-yl)pyridin-3-yl)methanesulfonamide], the IC50 at PI3Ka, against EGFR and against DNA-PK was 2 to 20 nM each time. For the same molecule, the inhibition at 0.1 µM at PI3Ka was above 90%; on EGFR it was 80 to 90%; at DNA-PK it was above 90%. In addition, the “½ life minutes (MLM)” value in data set [1] is on record as “++++ (value is greater than 60 minutes)”.
With `C[C@H](Nc1ncnc2ccc(-c3cnc(Cl)c(NS(C)(=O)=O)c3)cc12)c1ccccc1` [Compound 2S, N-(2-chloro-5-(4-((1S-phenylethyl)amino)quinazolin-6-yl)pyridin-3-yl)methanesulfonamide], at PI3Ka, the “PI3Ka IC50 (nM)” value is given as “++++ (value is 2 nM or less)” and the inhibition at 0.1 µM is above 90%. In addition, at EGFR, the concentration for half-maximal inhibition (IC50) was above 200 nM and the inhibition at 0.1 µM was below 10%. Further, on DNA-PK, the 50% inhibitory concentration (IC50) was below 2 nM and the inhibition at 0.1 µM was above 90%. Further, the “½ life minutes (MLM)” value in data set [1] is reported as “++++ (value is greater than 60 minutes)”.
In the case of `CC(Nc1c(C#N)cnc2ccc(-c3cnc(N)nc3)cc12)c1ccccc1` (stereo not drawn) [Compound 53, 6-(2-aminopyrimidin-5-yl)-4-(1-phenylethylamino) quinoline-3-carbonitrile], the “PI3Ka IC50 (nM)” value at PI3Ka is “+ (value is greater than 200 nM)”. In addition, the inhibition at 0.1 µM at PI3Ka was 10 to 80%; at EGFR, 80 to 90%; at DNA-PK, 10 to 80%. Moreover, the values for the IC50 at EGFR and against DNA-PK were 2 to 20 nM and 20 to 200 nM, respectively. For the same molecule, the “½ life minutes (MLM)” value in data set [1] is “+++ (value is greater than 30 minutes and less than or equal to 60 minutes)”.
In the case of `C[C@@H](Nc1c(C#N)cnc2ccc(-c3cnc(N)nc3)cc12)c1ccccc1` [Compound 53R, (R)-6-(2-aminopyrimidin-5-yl)-4-((1-phenylethyl)amino)quinoline-3-carbonitrile], at PI3Ka, the “PI3Ka IC50 (nM)” value was “+ (value is greater than 200 nM)”. Moreover, the inhibition at 0.1 µM on PI3Ka is 10 to 80%; on EGFR it was above 90%; at DNA-PK, 10 to 80%. Besides, the IC50 was 2 to 20 nM on EGFR and 20 to 200 nM against DNA-PK. In addition, the “½ life minutes (MLM)” value in data set [1] is “+++ (value is greater than 30 minutes and less than or equal to 60 minutes)”.
On to `CC(Nc1c(C#N)cnc2ccc(-c3cnc4[nH]ncc4c3)cc12)c1ccccc1` (stereo not drawn) [Compound 54, 4-(1-phenylethylamino)-6-(1H-pyrazolo[3,4-b]pyridin-5-yl)quinoline-3-carbonitrile], for which, on PI3Ka, the “PI3Ka IC50 (nM)” value is listed as “+ (value is greater than 200 nM)” and the inhibition at 0.1 µM fell in the range of 10 to 80%. On EGFR, the half-inhibitory concentration (IC50) lay in the range of 2 to 20 nM and the inhibition at 0.1 µM was above 90%. In addition, at DNA-PK, the IC50 lay within 2 to 20 nM and the inhibition at 0.1 µM fell in the range of 80 to 90%. In addition, the “½ life minutes (MLM)” value in data set [1] is reported as “+ (value is 15 minutes or less)”.
In the case of `C[C@@H](Nc1ncnc2ccc(-c3cnc(Cl)c(NS(C)(=O)=O)c3)cc12)c1ccc(F)cc1` [Compound 111R, N-(2-chloro-5-(4-((1R-(4-fluorophenyl)ethyl)amino)quinazolin-6-yl)pyridin-3-yl)methanesulfonamide], the values for the IC50 against PI3Ka and against EGFR were 2 to 20 nM and 20 to 200 nM, respectively. For the same molecule, the inhibition at 0.1 µM is above 90% at PI3Ka, 10 to 80% at EGFR and 80 to 90% at DNA-PK. Besides, the “½ life minutes (MLM)” value in data set [1] was “++++ (value is greater than 60 minutes)”.

In general, IC50 refers to the concentration that inhibits the measured activity by half.
